Article PMC9430567, “A Small-Molecule Inhibitor of the Anthranilyl-CoA Synthetase PqsA for the Treatment of Multidrug-Resistant Pseudomonas aeruginosa” (Microbiology Spectrum, 2022)
Values after ≈ are worked out from the molar mass of the structure shown.

What was measured:
MDR P. aeruginosa C218 = tested on: T1, MDR P. aeruginosa C218; assay: microbe, parasite or virus in culture; parameters: species or system Pseudomonas aeruginosa C218; CLSI broth micro-dilution MIC, complete inhibition of visible growth; settings: Pseudomonas aeruginosa
T1 construct: C218
Experimental: MIC determination using the standard micro-dilution method was performed according to the Clinical and Laboratory Standards Institute ([29]). […] Experiments were performed in triplicate.

PqsA G279A = target: T2, PqsA G279A (Pseudomonas aeruginosa, UniProt Q9I4X3, G279A); assay: biolayer interferometry (Octet K2); type: binding
T2 construct: His6-tagged PqsA G279A (pET30a-His6-pqsA^G279A), expressed in E. coli BL21 Star (DE3)
T2 sequence (Q9I4X3 1-517 G279A): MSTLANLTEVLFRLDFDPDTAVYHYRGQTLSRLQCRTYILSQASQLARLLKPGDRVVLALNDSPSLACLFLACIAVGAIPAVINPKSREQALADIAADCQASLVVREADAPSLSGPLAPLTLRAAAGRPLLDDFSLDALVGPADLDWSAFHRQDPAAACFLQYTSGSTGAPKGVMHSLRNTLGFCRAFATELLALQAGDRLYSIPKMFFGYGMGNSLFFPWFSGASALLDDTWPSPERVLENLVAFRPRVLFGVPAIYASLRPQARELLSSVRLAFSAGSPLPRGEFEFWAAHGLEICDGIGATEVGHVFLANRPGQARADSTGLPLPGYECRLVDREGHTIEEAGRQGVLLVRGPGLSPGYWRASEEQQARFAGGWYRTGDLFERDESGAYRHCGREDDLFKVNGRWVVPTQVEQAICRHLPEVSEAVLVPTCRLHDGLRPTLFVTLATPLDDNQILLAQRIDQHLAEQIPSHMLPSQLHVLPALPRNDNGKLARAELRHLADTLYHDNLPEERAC

PqsA D299A = target: T3, PqsA D299A (Pseudomonas aeruginosa, UniProt Q9I4X3, D299A); assay: biolayer interferometry (Octet K2); type: binding
T3 construct: His6-tagged PqsA D299A (pET30a-His6-pqsA^D299A), expressed in E. coli BL21 Star (DE3)
T3 sequence (Q9I4X3 1-517 D299A): T2 sequence (Q9I4X3 1-517 G279A)

[1] = target: T4, anthranilyl-CoA synthetase PqsA (Pseudomonas aeruginosa, UniProt Q9I4X3); assay: biolayer interferometry (Octet K2); type: binding
T4 construct: His6-tagged PqsA (pET30a-His6-pqsA), expressed in E. coli BL21 Star (DE3)

PqsR = target: T5, PqsR (Pseudomonas aeruginosa, UniProt Q9I4X0); assay: biochemical; parameters: biolayer interferometry (BLI) binding to purified His6-tagged protein
T5 construct: gene mvfR; His6-tagged PqsR (pET30a-His6-pqsR)
Experimental: (§1) [compound left out]. Cell debris was removed by centrifugation. […] The purified protein was assessed by SDS-PAGE.

LasI = target: T6, LasI (Pseudomonas aeruginosa, UniProt P33883); assay: biochemical; parameters: biolayer interferometry (BLI) binding to purified His6-tagged protein
T6 construct: His6-tagged LasI (pET30a-His6-lasI)
Experimental: as §1

RhlI = target: T7, RhlI (Pseudomonas aeruginosa, UniProt P54291); assay: biochemical; parameters: biolayer interferometry (BLI) binding to purified His6-tagged protein
T7 construct: His6-tagged RhlI (pET30a-His6-rhlI)
Experimental: as §1

PqsD = target: T8, PqsD (Pseudomonas aeruginosa, UniProt P20582); assay: biochemical; parameters: biolayer interferometry (BLI) binding to purified His6-tagged protein
T8 construct: His6-tagged PqsD (pET30a-His6-pqsD)
Experimental: as §1

RhlR = RhlR (Pseudomonas aeruginosa, UniProt P54292); assay: biochemical
PqsE = target: T9, PqsE (Pseudomonas aeruginosa, UniProt P20581); assay: biolayer interferometry (Octet K2); type: binding
T9 construct: His6-tagged PqsE (pET30a-His6-pqsE), expressed in E. coli BL21 Star (DE3)

LasR = target: T10, LasR (Pseudomonas aeruginosa, UniProt P25084); assay: biolayer interferometry (Octet K2); type: binding
T10 construct: His6-tagged LasR (pET30a-His6-LasR), expressed in E. coli BL21 Star (DE3)

SMILES	MIC (MDR P. aeruginosa C218)	also measured
C[C@H]1[C@H](NC(=O)/C(=N\OC(C)(C)C(=O)O)c2csc(N)n2)C(=O)N1S(=O)(=O)O [Aztreonam]	4000 mg/L (≈ 9190 µM)	–
CC1COc2c(N3CCN(C)CC3)c(F)cc3c(=O)c(C(=O)O)cn1c23 (centres unmarked) [Ofloxacin]	500 mg/L (≈ 1380 µM)	–
c1ccc2c(c1)[nH]c1cnccc12 [norharmane]	–	Kd (PqsA G279A): 1100 µM; Kd (PqsA D299A): 1650 µM; Kd [1]: 2.54 µM; Kd (PqsR): > 1000 µM; Kd (LasI): > 1000 µM; Kd (RhlI): > 1000 µM; Kd (PqsD): > 1000 µM; Kd (RhlR): > 1000 µM; Kd (PqsE): 500 µM; Kd (LasR): 2290 µM
C[C@@H](O)[C@H]1C(=O)N2C(C(=O)O)=C(S[C@@H]3CN[C@H](C(=O)N(C)C)C3)[C@H](C)[C@H]12 [Meropenem]	500 mg/L (≈ 1300 µM)	–
C[C@@H](O)[C@H]1C(=O)N2C(C(=O)O)=C(S[C@@H]3CN[C@H](CNS(N)(=O)=O)C3)[C@H](C)[C@H]12 [Doripenem]	500 mg/L (≈ 1190 µM)	–
CC1(C)S[C@@H]2[C@H](NC(=O)[C@H](NC(=O)N3CCNC3=O)c3ccccc3)C(=O)N2[C@H]1C(=O)O [Azlocillin]	4000 mg/L (≈ 8670 µM)	–
C[C@@H](O)[C@H]1C(=O)N2C(C(=O)O)=C(SCCNC=N)C[C@H]12 [Imipenem]	500 mg/L (≈ 1670 µM)	–
CCn1cc(C(=O)O)c(=O)c2cc(F)c(N3CCNCC3)cc21 [Norfloxacin]	4000 mg/L (≈ 12500 µM)	–
C[C@H]1COc2c(N3CCN(C)CC3)c(F)cc3c(=O)c(C(=O)O)cn1c23 [Levofloxacin]	62.5 mg/L (≈ 173 µM)	–
COc1c(N2CCNC(C)C2)c(F)cc2c(=O)c(C(=O)O)cn(C3CC3)c12 (centres unmarked) [Gatifloxacin]	62.5 mg/L (≈ 166 µM)	–
CCN1CCN(C(=O)N[C@@H](C(=O)N[C@@H]2C(=O)N3[C@@H]2SC(C)(C)[C@@H]3C(=O)O)c2ccccc2)C(=O)C1=O [Piperacillin]	4000 mg/L (≈ 7730 µM)	–
NC[C@H]1O[C@H](O[C@H]2[C@H](O)[C@@H](O[C@H]3O[C@H](CO)[C@@H](O)[C@H](N)[C@H]3O)[C@H](N)C[C@@H]2N)[C@H](N)C[C@@H]1O [Tobramycin]	3.9 mg/L (≈ 8.34 µM)	–
NC[C@H]1O[C@H](O[C@H]2[C@H](O)[C@@H](O[C@H]3O[C@H](CO)[C@@H](O)[C@H](N)[C@H]3O)[C@H](N)C[C@@H]2N)[C@H](O)[C@@H](O)[C@@H]1O [Kanamycin]	310 mg/L (≈ 640 µM)	–
NCC[C@H](O)C(=O)N[C@@H]1C[C@H](N)[C@@H](O[C@H]2O[C@H](CN)[C@@H](O)[C@H](O)[C@H]2O)[C@H](O)[C@H]1O[C@H]1O[C@H](CO)[C@@H](O)[C@H](N)[C@H]1O [Amikacin]	7.8 mg/L (≈ 13.3 µM)	–
CO/N=C(\C(=O)N[C@@H]1C(=O)N2C(C(=O)[O-])=C(C[N+]3(C)CCCC3)CS[C@H]12)c1csc(N)n1 [Cefepime]	4000 mg/L (≈ 8320 µM)	–
CCn1cc(C(=O)O)c(=O)c2cc(F)c(N3CCNC(C)C3)c(F)c21 (centres unmarked) [Lomefloxacin]	125 mg/L (≈ 356 µM)	–
CC(C)(O/N=C(\C(=O)N[C@@H]1C(=O)N2C(C(=O)[O-])=C(C[n+]3ccccc3)CS[C@H]12)c1csc(N)n1)C(=O)O [Ceftazidime]	500 mg/L (≈ 915 µM)	–
